Source: patent EP2667887B1, “PHARMACEUTICAL COMPOSITION COMPRISING THE PEPTIDE GLU-ASP-GLY AND USE FOR TREATING HELICOBACTER PYLORI INDUCED GASTRODUODENAL DISEASES” («Garmonia», Ltd., priority 2011, dated 2012)

How the values were obtained:
[1] = test system: constitutive and inducible NO synthase (cNO and iNO respectively), HSP70, and NF-kappa b-p65 factor; test: Western blot of signal molecules from ulcer edge in the rat gastric ulcer model with Helicobacter pylori; type: in vivo, Sprague Dawley rats; conditions: 7th day from ulcer induction; doses of 1 µg to 10 µg per kg of body weight daily for 5 days
Protocol: (§1) The study was carried out on 90 male Sprague Dawley rats (180-220 g) randomly subdivided into 9 groups (10 animals per group): • Group 1 - intact rats (saline solution) • Group 2 - modeled ulcer + saline solution • Group 3 (6 subgroups) - modeled ulcer + H-Glu-Asp-Gly-OH • Group 4 - modeled ulcer + Klacid antibiotic
(§2) Ulcer was modeled by three-time administration (in 4 hours) in the rat stomach of cysteamine-HCL (Aldrich, Milwannee, WI) by means of a probe in the dose of 25 mg per 100 g of body weight. The ulcer, approximately 28 mm^2 in size, appeared at the boundary between antral and fundal segments of the stomach 12 hours after the last administration. Simultaneously with the first administration of cysteamine-HCL a Helicobacter pylori culture (Curtin Matheson Scientific Inc, strain Cag J117, 100 microbial cells) was administered in the rat stomach through the same probe.
A means on the basis of the pharmaceutical composition comprising the studied peptide H-Glu-Asp-Gly-OH was administered subcutaneously in the dose of 1 µg per kg of animal body weight (group 3a), 2,5 µg per kg of body weight (group 3b) and 10 µg per kg of body weight (group 3c) in 0,5 ml of saline solution daily, for 5 days from the occurrence of the stomach ulcer. […]

[2] = test system: gastric epithelial cell mitochondria; test: Mitochondrial GFP expression in gastric epithelium after ulcer induction (confocal microscopy, in vivo study); set-up: species or system Sprague Dawley rats; conditions: both methods, three doses
Protocol: as §1, §2
A means on the basis of the pharmaceutical composition comprising the studied peptide H-Glu-Asp-Gly-OH was administered subcutaneously in the dose of 1 µg per kg of animal body weight (group 3a), 2,5 µg per kg of body weight (group 3b) and 10 µg per kg of body weight (group 3c) in 0,5 ml of saline solution daily, for 5 days from the occurrence of the stomach ulcer.
The means on the basis of the pharmaceutical composition comprising the studied peptide H-Glu-Asp-Gly-OH was administered intragastrically (through a probe) in the dose of 1 µg per kg of animal body weight (group 3d), 2,5 µg per kg of body weight (group 3e) and 10 µg per kg of body weight (group 3f) in 0,5 ml of saline solution daily, for 5 days from the occurrence of the stomach ulcer. […]
The status of isolated mitochondria was assessed using immunofluorescent confocal laser microscopy. […]
Confocal microscopy of mitochondria with optical density evaluation was carried out in an inverted confocal microscope Olympus Fluoview CM FV300-IX70 using an apochromatic lens 606 UPlan (Olympus). A 488 nm excitation wave of argon laser was used in each chamber to specify mito-GFP fluorescence that verifies the structure of mitochondria.

In the case of “glutamyl-aspartyl-glycine [H-Glu-Asp-Gly-OH]”, the “level of production of signal molecules (both NO synthase forms, HSP70, NF kappa b-p65) in the mucous membrane of the edge of the ulcer” value [1] is reported as “comparable with commonly normal indices”, the “mitochondrial GFP expression (optical density), 7th day” value ([2]; 7th day after ulcer induction, intact 3.12±0.22, ulcer 0.54±0.02) is reported as 2.86±0.21 conv. units and the “mitochondrial GFP expression (optical density), 15th day” value ([2]; 15th day after ulcer induction, intact 3.17±0.18, ulcer 0.87±0.04) is reported as 3.03±0.16 conv. units. For the same substance, the “mitochondrial GFP expression (optical density), 21st day” value ([2]; 21st day after ulcer induction, intact 3.19±0.18, ulcer 1.67±0.09) was 3.16±0.18 conv. units.
